Assay results reported in BindingDB's records for doi:10.3109/14756366.2010.548330 (Metropolitan University-Xochimilco, 2011).

target: T1, cDNA, FLJ78895, highly similar to 3-oxo-5-alpha-steroid 4-dehydrogenase 1 (Homo sapiens, UniProt B7Z4L2); experiment: 5α-Reductase Activity Assay; settings: pH 6.5; 37 °C
T1 sequence (B7Z4L2 whole entry): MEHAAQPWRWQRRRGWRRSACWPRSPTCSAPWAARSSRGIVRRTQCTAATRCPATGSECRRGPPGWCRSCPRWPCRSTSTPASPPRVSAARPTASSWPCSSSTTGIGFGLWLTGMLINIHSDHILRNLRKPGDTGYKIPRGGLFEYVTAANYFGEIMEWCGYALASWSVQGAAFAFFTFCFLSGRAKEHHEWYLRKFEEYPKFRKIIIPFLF
Experimental: The reaction mixtures contained a final volume of 1 mL, 1 mM DTT, sodium phosphate buffer 40 mM, at pH 6.5, 2 mM, NADPH, 2 nM [1,2,6,7-3H]T or [1,2,3,7-3H(N)] 4-dione and the prostatic enzyme fractions. The amount of prostatic enzyme fractions was determined to adjust the rate of conversion of T to DHT or 4-dione to 5α-dione to around 28%. T, DHT, unlabeled 4-dione or 5α-dione concentrationswere adjusted to 25-250 nM in the incubating medium, by adding one of the following reagents cold T, DHT, unlabeled 4-dione or 5α-dione. The reactions in duplicate were started when added to the enzymatic fraction (400 μg protein in a volume of 80 μL) incubated at 37°C for 60 min13 and stopped by mixing with 1 mL ofdichloromethane. Incubation without tissue was used as a control. All reactions were carried out in two different times by duplicate.

| Compound | IC50 |
| --- | --- |
| CC(=O)O[C@]1(C(C)=O)CCC2C3CCC4=CC(=O)CCC4(C)C3CCC21C (some centres not stated) [3,20-Dioxopregn-4-ene-17-yl acetate (4)] | 500 nM |
| CCc1ccc(C(=O)O[C@]2(C(C)=O)CCC3C4CCC5=C(Br)C(=O)CCC5(C)C4CCC32C)cc1 (some centres not stated) [4-Bromo-3,20-dioxopregn-4-ene-17-yl-4-ethylbenzoate (8b)] | 50 nM |
| CC(=O)[C@@]1(O)CCC2C3CCC4=C(Br)C(=O)CCC4(C)C3CCC21C (stereo partly drawn) [4-Bromo-17α-hydroxypregn-4-ene-3,20-dione (7b)] | 1.6 nM |
| CCc1ccc(C(=O)O[C@]2(C(C)=O)CCC3C4CCC5=C(Cl)C(=O)CCC5(C)C4CCC32C)cc1 (some centres not stated) [4-Chloro-3,20-dioxopregn-4-ene-17-yl-4-ethylbenzoate (8a)] | 73 nM |
| CC(=O)[C@@]1(O)CCC2C3CCC4=C(Cl)C(=O)CCC4(C)C3CCC21C (stereo partly drawn) [4-Chloro-17α-hydroxypregn-4-ene-3,20-dione (7a)] | 63 nM |
| CC(C)(C)NC(=O)[C@H]1CC[C@H]2[C@@H]3CC[C@H]4NC(=O)C=C[C@]4(C)[C@H]3CC[C@]12C [4a,6a-Dimethyl-2-oxo-2,4a,4b,5,6,6a,7,8,9,9a,9b,10,11,11a-tetradecahydro-1H-indeno[5,4-f]quinoline-7-carboxylic acid tert-butylamide] | 1.3 nM |
| CC(=O)[C@@]1(O)CCC2C3CCC4=CC(=O)CCC4(C)C3CCC21C (stereo partly drawn) [17α-Hydroxypregn-4-ene-3,20-dione (5)] | 2 nM |
